In patent publication US20230391772A1, “METHODS AND COMPOSITIONS FOR TARGETED PROTEIN DEGRADATION” (Ranok Therapeutics (Hangzhou) Co. Ltd., priority 2020, published 2023):

Legend:
HSP90a protein = biological target: T1, HSP90a protein (Homo sapiens, UniProt P07900); assay: HSP90α-binding fluorescent polarization (FP) assay, BODIPY-labeled RNK04010 probe; details: FP competition with RNK04010 (BODIPY-labeled), 5 nM, 300 min at 25° C.
T1 construct: purchased BPS Bioscience 50298
Outline: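 Binding was scored by fluorescence polarization after adding N-terminal HSP90a to wells holding probe and compound, with compound tested from 20 μM to 5.2 nM. Probe-dependent times at 25° C were 120 min for FITC-geldanamycin and 300 min for RNK04010-BODIPY, both at 5 nM final.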

[1] = system: NCI-H358 human non-small cell lung cancer; assay: NCI-H358 CCK-8 proliferation assay; format: cell-based; details: NCI-H358 cells, 72 hr
Outline: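 Three KRAS(G12C) lines are used, MIA PaCa-2 at two mutant copies and the NSCLC lines NCI-H358 and NCI-H23 at one. Each compound is titrated 3-fold from 20 μM to 1.02 nM, and proliferation is scored by CCK-8.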

IC50 (HSP90a protein) | EC50 [1] | SMILES
0.1 to 1 µM | > 1 µM | C=CC(=O)N1CCN(c2nc(NCCC(=O)NCc3ccc(-n4c(O)nnc4-c4cc(C(C)C)c(O)cc4O)cc3C(F)(F)F)nc3c2CCN(c2cccc4ccccc24)C3)C[C@H]1CC#N [Compound 82, (R)-3-((4-(4-acryloyl-3-(cyanomethyl)piperazin-1-yl)-7-(naphthalen-1-yl)-5,6,7,8-tetrahydropyrido[3,4-d]pyrimidin-2-yl)amino)-N-(4-(3-(2,4-dihydroxy-5-isopropylphenyl)-5-hydroxy-4H-1,2,4-triazol-4-yl)-2-(trifluoromethyl)benzyl)propanamide, trifluoroacetic acid]
> 1 µM | > 1 µM | CCC(=O)N1CCN(c2nc(NCCC(=O)NCc3ccc(-n4c(O)nnc4-c4cc(CC)c(O)cc4O)cc3F)nc3c2CCN(c2cc(O)cc4ccccc24)C3)CC1 [Compound 34, N-(4-(3-(5-ethyl-2,4-dihydroxyphenyl)-5-hydroxy-4H-1,2,4-triazol-4-yl)-2-fluorobenzyl)-3-((7-(3-hydroxynaphthalen-1-yl)-4-(4-propionylpiperazin-1-yl)-5,6,7,8-tetrahydropyrido[3,4-d]pyrimidin-2-yl)amino)propanamide, trifluoroacetic acid]
0.1 to 1 µM | > 1 µM | CCC(=O)N1CCN(c2nc(NCCC(=O)NCc3ccc(-n4c(O)nnc4-c4cc(C(C)C)c(O)cc4O)cc3C(F)(F)F)nc3c2CCN(c2cc(O)cc4ccccc24)C3)CC1 [Compound 46, N-(4-(3-(2,4-dihydroxy-5-isopropylphenyl)-5-hydroxy-4H-1,2,4-triazol-4-yl)-2-(trifluoromethyl)benzyl)-3-((7-(3-hydroxynaphthalen-1-yl)-4-(4-propionylpiperazin-1-yl)-5,6,7,8-tetrahydropyrido[3,4-d]pyrimidin-2-yl)amino)propenamide]
> 1 µM | > 1 µM | C=CC(=O)N1CCN(c2nc(NCCC(=O)N3CCN(Cc4ccc5c(c4)CN(C(=O)c4cc(CC)c(O)cc4O)C5)CC3)nc3c2CCN(c2cc(O)cc4ccccc24)C3)CC1 [Compound 68, 1-(4-(2-((3-(4-((2-(5-ethyl-2,4-dihydroxybenzoyl)isoindolin-5-yl)methyl)piperazin-1-yl)-3-oxopropyl)amino)-7-(3-hydroxynaphthalen-1-yl)-5,6,7,8-tetrahydropyrido[3,4-d]pyrimidin-4-yl)piperazin-1-yl)prop-2-en-1-one, trifluoroacetic acid]
0.1 to 1 µM | 0.1 to 1 µM | C=C(F)C(=O)N1CCN(c2nc(NCCC(=O)NCc3ccc(CN4CCC(Cc5ccc(-n6c(C(=O)NCC(F)(F)F)nnc6-c6cc(C(C)C)c(O)cc6O)cc5)CC4)cc3)nc3c2CCN(c2cc(O)cc4ccccc24)C3)CC1 [Compound 154, 5-(2,4-dihydroxy-5-isopropylphenyl)-4-(4-((1-(4-((3-((4-(4-(2-fluoroacryloyl)piperazin-1-yl)-7-(3-hydroxynaphthalen-1-yl)-5,6,7,8-tetrahydropyrido[3,4-d]pyrimidin-2-yl)amino)propanamido)methyl)benzyl)piperidin-4-yl)methyl)phenyl)-N-(2,2,2-trifluoroethyl)-4H-1,2,4-triazole-3-carboxamide]
0.1 to 1 µM | > 1 µM | C=CC(=O)N1CCN(c2nc(NCCC(=O)N3CCC(CN4CCC(Cc5ccc(-n6c(O)nnc6-c6cc(C(C)C)c(O)cc6O)cc5)CC4)CC3)nc3c2CCN(c2cc(O)cc4ccccc24)C3)CC1 [Compound 12, 1-(4-(2-((3-(4-((4-(4-(3-(2,4-dihydroxy-5-isopropylphenyl)-5-hydroxy-4H-1,2,4-triazol-4-yl)benzyl)piperidin-1-yl)methyl)piperidin-1-yl)-3-oxopropyl)amino)-7-(3-hydroxynaphthalen-1-yl)-5,6,7,8-tetrahydropyrido[3,4-d]pyrimidin-4-yl)piperazin-1-yl)prop-2-en-1-one, trifluoroacetic acid]
0.1 to 1 µM | > 1 µM | C=CC(=O)N1CCN(c2nc(NCCC(=O)NCc3ccc(-n4c(O)nnc4-c4cc(C(C)C)c(O)cc4O)cc3)nc3c2CCN(c2cc(O)cc4ccccc24)C3)CC1 [Compound 7, 3-((4-(4-acryloylpiperazin-1-yl)-7-(3-hydroxynaphthalen-1-yl)-5,6,7,8-tetrahydropyrido[3,4-d]pyrimidin-2-yl)amino)-N-(4-(3-(2,4-dihydroxy-5-isopropylphenyl)-5-hydroxy-4H-1,2,4-triazol-4-yl)benzyl)propanamide, trifluoroacetic acid]
< 0.1 µM | > 1 µM | C=CC(=O)N1CCN(c2nc(NCCC(=O)NCC3CCN(C(=O)C4CCN(Cc5ccc(-n6c(O)nnc6-c6cc(CC)c(O)cc6O)cc5)CC4)CC3)nc3c2CCN(c2cccc4cccc(Cl)c24)C3)C[C@H]1CC#N [Compound 104, (R)-3-((4-(4-acryloyl-3-(cyanomethyl)piperazin-1-yl)-7-(8-chloronaphthalen-1-yl)-5,6,7,8-tetrahydropyrido[3,4-d]pyrimidin-2-yl)amino)-N-((1-(1-(4-(3-(5-ethyl-2,4-dihydroxyphenyl)-5-hydroxy-4H-1,2,4-triazol-4-yl)benzyl)piperidine-4-carbonyl)piperidin-4-yl)methyl)propanamide, trifluoroacetic acid]
0.1 to 1 µM | > 1 µM | CC(=O)N1CCN(c2nc(NCCC(=O)N3CCC(CN4CCC(Cc5ccc(-n6c(O)nnc6-c6cc(C(C)C)c(O)cc6O)cc5)CC4)CC3)nc3c2CCN(c2cc(O)cc4ccccc24)C3)CC1 [Compound 29, 3-((4-(4-acetylpiperazin-1-yl)-7-(3-hydroxynaphthalen-1-yl)-5,6,7,8-tetrahydropyrido[3,4-d]pyrimidin-2-yl)amino)-1-(4-((4-(4-(3-(2,4-dihydroxy-5-isopropylphenyl)-5-hydroxy-4H-1,2,4-triazol-4-yl)benzyl)piperidin-1-yl)methyl)piperidin-1-yl)propan-1-one, trifluoroacetic acid]
< 0.1 µM | > 1 µM | C=CC(=O)N1CCN(c2nc(NCCC(=O)NCCOCCOCCOc3ccc(-n4c(O)nnc4-c4cc(C(C)C)c(O)cc4O)cc3)nc3c2CCN(c2cccc4ccccc24)C3)C[C@@H]1CC#N [Compound 92, (S)-3-((4-(4-acryloyl-3-(cyanomethyl)piperazin-1-yl)-7-(naphthalen-1-yl)-5,6,7,8-tetrahydropyrido[3,4-d]pyrimidin-2-yl)amino)-N-(2-(2-(2-(4-(3-(2,4-dihydroxy-5-isopropylphenyl)-5-hydroxy-4H-1,2,4-triazol-4-yl)phenoxy)ethoxy)ethoxy)ethyl)propanamide, trifluoroacetic acid]
0.1 to 1 µM | > 1 µM | CC(=O)N1CCN(c2nc(NCCC(=O)N3CCC(Cc4ccc(-n5c(O)nnc5-c5cc(C(C)C)c(O)cc5O)cc4)CC3)nc3c2CCN(c2cc(O)cc4ccccc24)C3)CC1 [Compound 28, 3-((4-(4-acetylpiperazin-1-yl)-7-(3-hydroxynaphthalen-1-yl)-5,6,7,8-tetrahydropyrido[3,4-d]pyrimidin-2-yl)amino)-1-(4-(4-(3-(2,4-dihydroxy-5-isopropylphenyl)-5-hydroxy-4H-1,2,4-triazol-4-yl)benzyl)piperidin-1-yl)propan-1-one, trifluoroacetic acid]
0.1 to 1 µM | > 1 µM | C=CC(=O)N1CCN(c2nc(NCCC(=O)NCc3ccc(-n4c(O)nnc4-c4cc(CC)c(O)cc4O)cc3)nc3c2CCN(c2cc(O)cc4ccccc24)C3)CC1 [Compound 40, 3-((4-(4-acryloylpiperazin-1-yl)-7-(3-hydroxynaphthalen-1-yl)-5,6,7,8-tetrahydropyrido[3,4-d]pyrimidin-2-yl)amino)-N-(4-(3-(5-ethyl-2,4-dihydroxyphenyl)-5-hydroxy-4H-1,2,4-triazol-4-yl)benzyl)propanamide, trifluoroacetic acid]
< 0.1 µM | > 1 µM | C=CC(=O)N1CCN(c2nc(NCCC(=O)NCC3CCN(C(=O)C4CCN(Cc5ccc(-n6c(O)nnc6-c6cc(CC)c(O)cc6O)cc5)CC4)CC3)nc3c2CCN(c2cccc4ccccc24)C3)C[C@H]1CC#N [Compound 103, (R)-3-((4-(4-acryloyl-3-(cyanomethyl)piperazin-1-yl)-7-(naphthalen-1-yl)-5,6,7,8-tetrahydropyrido[3,4-d]pyrimidin-2-yl)amino)-N-((1-(1-(4-(3-(5-ethyl-2,4-dihydroxyphenyl)-5-hydroxy-4H-1,2,4-triazol-4-yl)benzyl)piperidine-4-carbonyl)piperidin-4-yl)methyl)propanamide, trifluoroacetic acid]
> 1 µM | > 1 µM | C=CC(=O)N1CCN(c2nc(NCCC(=O)NCc3ccc(-n4c(O)nnc4-c4ccc(O)cc4O)cc3)nc3c2CCN(c2cc(O)cc4ccccc24)C3)CC1 [Compound 27, 3-((4-(4-acryloylpiperazin-1-yl)-7-(3-hydroxynaphthalen-1-yl)-5,6,7,8-tetrahydropyrido[3,4-d]pyrimidin-2-yl)amino)-N-(4-(3-(2,4-dihydroxyphenyl)-5-hydroxy-4H-1,2,4-triazol-4-yl)benzyl)propanamide, trifluoroacetic acid]
0.1 to 1 µM | 0.1 to 1 µM | CCC(=O)N1CCN(c2nc(NCCC(=O)N3CCC(CN4CCN(Cc5ccc(-n6c(C(=O)NC(CC)CC)nnc6-c6cc(CC)c(O)cc6O)cc5)CC4)CC3)nc3c2CCN(c2cc(O)cc4ccccc24)C3)CC1 [Compound 117, 5-(5-ethyl-2,4-dihydroxyphenyl)-4-(4-((4-((1-(3-((7-(3-hydroxynaphthalen-1-yl)-4-(4-propionylpiperazin-1-yl)-5,6,7,8-tetrahydropyrido[3,4-d]pyrimidin-2-yl)amino)propanoyl)piperidin-4-yl)methyl)piperazin-1-yl)methyl)phenyl)-N-(pentan-3-yl)-4H-1,2,4-triazole-3-carboxamide, trifluoroacetic acid]
